US20220017566A1, “TERPINOID DERIVATIVES AND USES THEREOF” (SICHUAN HAISCO PHARMACEUTICAL CO., LTD., priority 2018, published 2022)

Experiments:
[1] = system: IFNγ-induced NO production in Raw 264.7 cells; test: Nitric oxide assay: suppression of IFNγ-induced NO production (Griess nitrite, adjusted to live cell numbers); format: cell-based; details: Mus musculus, RAW264.7, 2 h pretreatment, IFNγ 10 ng/ml for 24 hours
Description: Raw 264.7 cells were seeded in 96-well plates at a density of 30, 000 cells per well in DMEM+10% FBS and incubated overnight. The next day, cell media was replaced by DMEM+2% FBS. Cells were pretreated with DMSO or test compounds (top dose 100 nM, 1:4 serial dilution, 10-point) for 2 hours and then treated with recombinant mouse IFNγ (R&D, Cat# 485-MI-100) at a final concentration of 10 ng/ml for 24 hours. Nitrite levels were measured in culture media as a surrogate for nitric oxide using the Griess Reagent System (Promega, Cat# G2930). Cell viability was determined using CellTiter Glo reagents (Promega, Cat#G7572). The nitrite levels were adjusted to live cell numbers and inhibition percentage was calculated. The inhibition percentage was then plotted against compound concentration, and IC50 values were calculated using four-parameter algorithm in Graphpad Prism.

CYP3A4 = biological target: T1, CYP3A4 (Homo sapiens, UniProt P08684); test: CYP450 enzyme inhibition in liver microsomes (cocktail probe incubation); format: in vitro ADME; details: species not given, 0.05-50 μM tested
T1 construct: studied in liver microsomes of CD-1 mouse, Sprague Dawley rat, Beagle dog, cynomolgus monkey, and human; from tissue; host or cells: liver microsomes
Description: (§1) The inhibition potential of test compounds towards major drug metabolizing CYP450 enzymes was studied in liver microsomes of CD-1 mouse, Sprague Dawley rat, Beagle dog, cynomolgus monkey, and human. The inhibition of CYP1A2, CYP2C9, CYP2C19, CYP2D6, and CYP3A4 was assessed using CYP450 specific probe reactions in a cocktail incubation. Seven concentrations of test compounds (0.05, 0.15, 0.5, 1.5, 5, 15, and 50 μM) were evaluated. In addition, known inhibitors for each probe reaction were included as positive controls and incubated at a single concentration above their respective IC50.

CYP2D6 = biological target: T2, CYP2D6 (Homo sapiens, UniProt P10635); test: as above; format: in vitro ADME; details: species not given, 0.05-50 μM tested
T2 construct: studied in liver microsomes of CD-1 mouse, Sprague Dawley rat, Beagle dog, cynomolgus monkey, and human; from tissue; host or cells: liver microsomes
Description: as §1

CYP1A2 = biological target: T3, CYP1A2 (Homo sapiens, UniProt P05177); test: as above; format: in vitro ADME; details: species not given, 0.05-50 μM tested
T3 construct: studied in liver microsomes of CD-1 mouse, Sprague Dawley rat, Beagle dog, cynomolgus monkey, and human; from tissue; host or cells: liver microsomes
T3 sequence (P05177 1-516): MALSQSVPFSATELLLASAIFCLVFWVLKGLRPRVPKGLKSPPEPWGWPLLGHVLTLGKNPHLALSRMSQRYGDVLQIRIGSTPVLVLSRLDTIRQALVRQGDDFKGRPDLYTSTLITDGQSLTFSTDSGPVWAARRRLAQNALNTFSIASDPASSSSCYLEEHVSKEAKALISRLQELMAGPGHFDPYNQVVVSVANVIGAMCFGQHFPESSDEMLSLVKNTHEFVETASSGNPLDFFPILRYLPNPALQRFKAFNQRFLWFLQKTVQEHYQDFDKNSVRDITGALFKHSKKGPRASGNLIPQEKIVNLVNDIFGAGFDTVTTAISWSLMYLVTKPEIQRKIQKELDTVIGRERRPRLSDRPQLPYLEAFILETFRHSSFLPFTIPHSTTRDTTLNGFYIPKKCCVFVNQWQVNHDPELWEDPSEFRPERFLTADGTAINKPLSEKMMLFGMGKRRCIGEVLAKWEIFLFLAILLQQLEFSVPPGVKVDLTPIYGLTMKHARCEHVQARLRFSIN
Description: as §1

CYP2C9 = biological target: T4, CYP2C9 (Homo sapiens, UniProt P11712); test: as above; format: in vitro ADME; details: species not given, 0.05-50 μM tested
T4 construct: studied in liver microsomes of CD-1 mouse, Sprague Dawley rat, Beagle dog, cynomolgus monkey, and human; from tissue; host or cells: liver microsomes
Description: as §1

CYP2C19 = biological target: T5, CYP2C19 (Homo sapiens, UniProt P33261); test: as above; format: in vitro ADME; details: species not given, 0.05-50 μM tested
T5 construct: studied in liver microsomes of CD-1 mouse, Sprague Dawley rat, Beagle dog, cynomolgus monkey, and human; from tissue; host or cells: liver microsomes
Description: as §1

T2 sequence (P10635 whole entry): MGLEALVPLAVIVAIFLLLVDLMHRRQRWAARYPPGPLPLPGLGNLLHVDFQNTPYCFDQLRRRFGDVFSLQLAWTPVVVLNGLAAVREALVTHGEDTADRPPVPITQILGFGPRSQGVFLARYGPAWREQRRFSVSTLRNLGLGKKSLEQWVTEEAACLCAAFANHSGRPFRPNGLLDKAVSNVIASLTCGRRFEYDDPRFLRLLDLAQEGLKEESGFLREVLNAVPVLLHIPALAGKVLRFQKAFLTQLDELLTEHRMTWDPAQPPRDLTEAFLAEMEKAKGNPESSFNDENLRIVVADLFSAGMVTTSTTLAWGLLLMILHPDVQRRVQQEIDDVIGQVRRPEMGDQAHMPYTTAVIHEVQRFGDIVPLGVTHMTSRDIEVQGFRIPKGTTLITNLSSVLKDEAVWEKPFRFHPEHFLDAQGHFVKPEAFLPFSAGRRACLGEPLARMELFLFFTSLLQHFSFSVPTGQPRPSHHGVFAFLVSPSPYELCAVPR
T5 sequence (P33261 whole entry): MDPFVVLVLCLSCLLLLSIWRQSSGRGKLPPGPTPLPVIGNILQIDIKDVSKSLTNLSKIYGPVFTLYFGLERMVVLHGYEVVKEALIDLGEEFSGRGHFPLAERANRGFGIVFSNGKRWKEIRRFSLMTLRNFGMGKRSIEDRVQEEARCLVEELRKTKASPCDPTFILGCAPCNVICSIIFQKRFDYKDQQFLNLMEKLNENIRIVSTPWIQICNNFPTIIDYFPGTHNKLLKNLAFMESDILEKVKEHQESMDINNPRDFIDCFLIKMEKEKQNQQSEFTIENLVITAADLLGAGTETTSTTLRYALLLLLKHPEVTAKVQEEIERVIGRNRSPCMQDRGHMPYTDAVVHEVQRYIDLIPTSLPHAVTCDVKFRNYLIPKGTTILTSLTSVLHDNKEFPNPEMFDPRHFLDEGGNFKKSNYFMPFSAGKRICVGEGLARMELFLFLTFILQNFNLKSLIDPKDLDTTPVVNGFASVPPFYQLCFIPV
T1 sequence (P08684 whole entry): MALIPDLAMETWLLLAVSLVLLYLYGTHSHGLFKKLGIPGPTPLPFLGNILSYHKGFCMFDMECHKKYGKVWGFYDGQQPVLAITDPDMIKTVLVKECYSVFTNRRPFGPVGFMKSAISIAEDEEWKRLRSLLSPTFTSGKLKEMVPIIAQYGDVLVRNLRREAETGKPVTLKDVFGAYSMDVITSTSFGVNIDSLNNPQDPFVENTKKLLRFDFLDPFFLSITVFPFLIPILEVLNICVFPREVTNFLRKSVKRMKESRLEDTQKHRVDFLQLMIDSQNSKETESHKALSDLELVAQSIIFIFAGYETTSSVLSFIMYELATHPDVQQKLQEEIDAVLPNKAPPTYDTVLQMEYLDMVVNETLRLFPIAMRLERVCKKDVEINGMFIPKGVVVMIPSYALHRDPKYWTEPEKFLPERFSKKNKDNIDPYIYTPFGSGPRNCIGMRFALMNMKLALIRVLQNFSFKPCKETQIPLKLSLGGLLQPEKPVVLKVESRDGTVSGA
T4 sequence (P11712 whole entry): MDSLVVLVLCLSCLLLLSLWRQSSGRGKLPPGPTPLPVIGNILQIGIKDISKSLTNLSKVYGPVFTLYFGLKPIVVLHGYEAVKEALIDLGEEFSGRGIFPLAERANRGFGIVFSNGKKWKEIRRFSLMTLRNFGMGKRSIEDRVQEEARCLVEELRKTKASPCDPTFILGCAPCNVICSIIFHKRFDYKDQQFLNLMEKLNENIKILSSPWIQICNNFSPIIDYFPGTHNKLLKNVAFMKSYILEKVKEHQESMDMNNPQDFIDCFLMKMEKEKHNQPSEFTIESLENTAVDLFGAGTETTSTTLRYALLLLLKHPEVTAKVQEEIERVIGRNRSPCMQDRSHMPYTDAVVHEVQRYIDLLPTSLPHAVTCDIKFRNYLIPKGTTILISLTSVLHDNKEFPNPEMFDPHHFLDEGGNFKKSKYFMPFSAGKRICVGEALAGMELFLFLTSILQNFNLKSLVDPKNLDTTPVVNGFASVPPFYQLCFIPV

Row | SMILES | IC50 [1] [nM] | IC50 (CYP3A4) [nM] | IC50 (CYP2D6) [nM] | IC50 (CYP1A2) [nM] | IC50 (CYP2C9) [nM] | IC50 (CYP2C19) [nM]
1 | CC1(C)C(=O)C(C#N)=C[C@]2(C)C3=CC(=O)[C@@H]4[C@@H]5C[C@@](C)(c6ncco6)CC[C@]5(C)CC[C@@]4(C)[C@]3(C)CC[C@@H]12 [Example 6, (4aR,6aS,6bR,8aS,11S,12aS,12bR,14bS)-4,4,6a,6b,8a,11,14b-heptamethyl-11-(oxazol-2-yl)-3,13-dioxo-3,4,4a,5,6,6a,6b,7,8,8a,9,10,11,12,12a,12b,13,14b-octadecahydropicene-2-carbonitrile] | < 10 | 500 | 6900 | > 50000 | 2100 | 5600
2 | Cc1cnc([C@@]2(C)CC[C@]3(C)CC[C@]4(C)[C@H](C(=O)C=C5[C@@]6(C)C=C(C#N)C(=O)C(C)(C)[C@@H]6CC[C@]54C)[C@@H]3C2)o1 [Example 7, (4aR,6aS,6bR,8aS,11S,12aS,12bR,14bS)-4,4,6a,6b,8a,11,14b-heptamethyl-11-(5-methyloxazol-2-yl)-3,13-dioxo-3,4,4a,5,6,6a,6b,7,8,8a,9,10,11,12,12a,12b,13,14b-octadecahydropicene-2-carbonitrile] | < 10 | 800 | 10100 | > 50000 | 2000 | 9400
3 | CC1(C)C(=O)C(C#N)=C[C@]2(C)C3=CC(=O)[C@@H]4[C@@H]5C[C@@](C)(c6nc(-c7ccccc7)n[nH]6)CC[C@]5(C)CC[C@@]4(C)[C@]3(C)CC[C@@H]12 [Example 8, (4aR,6aS,6bR,8aS,11S,12aS,12bR,14bS)-4,4,6a,6b,8a,11,14b-heptamethyl-3,13-dioxo-11-(3-phenyl-1H-1,2,4-triazol-5-yl)-3,4,4a,5,6,6a,6b,7,8,8a,9,10,11,12,12a,12b,13,14b-octadecahydropicene-2carbonitrile] | 10 to 100 | – | – | – | – | –
4 | CC1(C)C(=O)C(C#N)=C[C@]2(C)C3=CC(=O)[C@@H]4[C@@H]5C[C@@](C)(c6nnc(C(F)(F)F)o6)CC[C@]5(C)CC[C@@]4(C)[C@]3(C)CC[C@@H]12 [Example 10, (4aR,6aS,6bR,8aS,11S,12aS,12bR,14bS)-4,4,6a,6b,8a,11,14b-heptamethyl-3,13-dioxo-11-(5-(trifluoromethyl)-1,3,4-oxadiazol-2-yl)-3,4,4a,5,6,6a,6b,7,8,8a,9,10,11,12,12a,12b,13,14b-octadecahydropicene-2-carbonitrile] | < 10 | 1300 | > 50000 | > 50000 | 1800 | 27500
5 | CC1(C)C(=O)C(C#N)=C[C@]2(C)C3=CC(=O)[C@@H]4[C@@H]5C[C@@](C)(N6CCOCC6)CC[C@]5(C)CC[C@@]4(C)[C@]3(C)CC[C@@H]12 [Example 11, (4aR,6aS,6bR,8aS,11S,12aS,12bR,14bS)-4,4,6a,6b,8a,11,14b-heptamethyl-11-morpholino-3,13-dioxo-3,4,4a,5,6,6a,6b,7,8,8a,9,10,11,12,12a,12b,13,14b-octadecahydropicene-2-carbonitrile] | < 10 | 500 | > 50000 | > 50000 | 2200 | 14600
6 | CC1(C)C(=O)C(C#N)=C[C@]2(C)C3=CC(=O)[C@@H]4[C@@H]5C[C@@](C)(c6nnc(C7CC7)o6)CC[C@]5(C)CC[C@@]4(C)[C@]3(C)CC[C@@H]12 [Example 16, (4aR,6aS,6bR,8aS,11S,12aS,12bR,14bS)-11-(5-cyclopropyl-1,3,4-oxadiazol-2-yl)-4,4,6a,6b,8a,11,14b-heptamethyl-3,13-dioxo-3,4,4a,5,6,6a,6b,7,8,8a,9,10,11,12,12a,12b,13,14b-octadecahydropicene-2-carbonitrile] | < 10 | 1500 | 14700 | > 50000 | 2000 | 7400
7 | CC1(C)C(=O)C(C#N)=C[C@]2(C)C3=CC(=O)[C@@H]4[C@@H]5C[C@@](C)(n6cnnc6)CC[C@]5(C)CC[C@@]4(C)[C@]3(C)CC[C@@H]12 [Example 17, (4aR,6aS,6bR,8aS,11S,12aS,12bR,14bS)-4,4,6a,6b,8a,11,14b-heptamethyl-3,13 dioxo-11-(4H-1,2,4-triazol-4-yl)-3,4,4a,5,6,6a,6b,7,8,8a,9,10,11,12,12a,12b,13,14b-octadecahydropicene-2-carbonitrile] | – | 100 | 35400 | > 50000 | 2200 | 16900
8 | CC1(C)C(=O)C(C#N)=C[C@]2(C)C3=CC(=O)[C@@H]4[C@@H]5C[C@@](C)(N6CCCC6)CC[C@]5(C)CC[C@@]4(C)[C@]3(C)CC[C@@H]12 [Example 21, (4aR,6aS,6bR,8aS,11S,12aS,12bR,14bS)-4,4,6a,6b,8a,11,14b-heptamethyl-3,13-dioxo-11-(pyrrolidin-1-yl)-3,4,4a,5,6,6a,6b,7,8,8a,9,10,11,12,12a,12b,13,14b-octadecahydropicene-2-carbonitrile] | 10 to 100 | – | – | – | – | –
9 | C[C@H](O)c1nnc([C@@]2(C)CC[C@]3(C)CC[C@]4(C)[C@H](C(=O)C=C5[C@@]6(C)C=C(C#N)C(=O)C(C)(C)[C@@H]6CC[C@]54C)[C@@H]3C2)o1 [Example 23, (4aR,6aS,6bR,8aS,11S,12aS,12bR,14bS)-11-(5-((S)-1-hydroxyethyl)-1,3,4-oxadiazol-2-yl)-4,4,6a,6b,8a,11,14b-heptamethyl-3,13-dioxo-3,4,4a,5,6,6a,6b,7,8,8a,9,10,11,12,12a,12b,13,14b-octadecahydropicene-2-carbonitrile] | 10 to 100 | 900 | 15800 | > 50000 | 1500 | 11800
10 | CNC(=O)c1nnc([C@@]2(C)CC[C@]3(C)CC[C@]4(C)[C@H](C(=O)C=C5[C@@]6(C)C=C(C#N)C(=O)C(C)(C)[C@@H]6CC[C@]54C)[C@@H]3C2)o1 [Example 24, 5-((2S,4aS,6aR,6bS,8aR,12aS,14aR,14bS)-11-cyano-2,4a,6a,6b,9,9,12a-heptamethyl-10,14-dioxo-1,2,3,4,4a,5,6,6a,6b,7,8,8a,9,10,12a,14,14a,14b-octadecahydropicen-2-yl)-N-methyl-1,3,4-oxadiazole-2-carboxamide] | < 10 | 500 | 4000 | > 50000 | 600 | 2800
11 | CC1(C)C(=O)C(C#N)=C[C@]2(C)C3=CC(=O)[C@@H]4[C@@H]5C[C@@](C)(c6nnc(N)o6)CC[C@]5(C)CC[C@@]4(C)[C@]3(C)CC[C@@H]12 [Example 27, (4aR,6aS,6bR,8aS,11S,12aS,12bR,14bS)-11-(5-amino-1,3,4-oxadiazol-2-yl)-4,4,6a,6b,8a,11,14b-heptamethyl-3,13-dioxo-3,4,4a,5,6,6a,6b,7,8,8a,9,10,11,12,12a,12b,13,14b-octadecahydropicene-2-carbonitrile] | 10 to 100 | – | – | – | – | –
